Like-named read-outs stand apart in the source and are kept apart here. One block for each molecule: values may come before it.
Tests used:
human CTPS1 versus CTPS2 = assay: Human CTPS1 versus CTPS2 selectivity assessment by RapidFire/MS analysis; type: biochemical; details: RapidFire/MS IC50 ratio
Protocol: Human CTPS1 versus CTPS2 Selectivity Assessment by RapidFire/MS Analysis.
The enzyme inhibitory activities against each target isoform of interest may be determined for the compounds of the invention using an optimised RapidFire high-throughput mass spectrometry (RF/MS) assay format. RF/MS assays for both human CTPS1 and CTPS2 may be performed in assay buffer consisting of 50 mM HEPES (Merck), 20 mM MgCl2, 5 mM KCl, 1 mM DTT, 0.01% Tween-20, pH to 8.0 accordingly. Human full-length active C-terminal FLAG-His-tag CTPS1 (UniProtKB—P17812, CTPS[1-591]-[…]) may be obtained from Proteros biostructures GmbH. Human full length active C-terminal FLAG-His-Avi tagged CTPS2 (UniProtKB-Q9NRF8, CTPS2 [1-586]-[…]) may be obtained from Harker Bio.
Human CTPS (1 or 2) protein may be prepared in 1× assay buffer to the final working protein concentration required for the reaction. A 2 uL volume per well of 2×CTPS (1 or 2) protein may be mixed with 40 nL of compound using acoustic (ECHO) delivery and incubated for 10 minutes at 25° C. Each isoform enzymatic reaction may be subsequently initiated by addition of 2 uL per well of a 2× substrate mix in assay buffer. For hCTPS1: ATP (0.3 mM), UTP (0.2 mM), GTP (0.07 mM) and L-glutamine (0.1 mM). For hCTPS2: ATP (0.1 mM), UTP (0.04 mM), GTP (0.03 mM) and L-glutamine (0.1 mM). Each mixture may be incubated for an appropriate amount of time per isoform within the determined linear phase of the reaction at 25′C. A 60 uL volume of stop solution (1% formic acid with 0.5 uM ^13C9-^15N3-CTP in H2O) may be added and the plate immediately heat-sealed and centrifuged for 10 minutes at 4,000 rpm. Following centrifugation, plates may be loaded onto the Agilent RapidFire microfluidic solid phase extraction system coupled to an API4000 triple quadrupole mass spectrometer (RF/MS) for analysis.
In all cases, the enzyme converts UTP to CTP. Highly specific and sensitive multiple reaction monitoring (MRM) MS methods may be optimised for the detection of the enzymatic reaction product, CTP, and the stable isotope labelled product standard ^13C9-^15N3-CTP. Readout for data analysis may be calculated as the ratio between the peak area of the product CTP and the internal standard ^13C9-^15N3-CTP. For data reporting, the following equation may be used: […]
For each screening plate, the means of the negative (DMSO) and positive control values were used for the calculation of the respective assay window (S/B) and Z′ values. The median of the respective control values was used for calculation of percent inhibition according to the following equation: […]
(§1) Percentage inhibition was then plotted against compound concentration, and the 50% inhibitory concentration (IC50) was determined from the resultant concentration-response curve.
Fold selectivity between CTPS1 and CTPS2 was subsequently calculated according to the following equation: […]

human CTPS1 = target: T1, human CTPS1 (Homo sapiens, UniProt P17812); assay: Human CTPS1 enzyme inhibition (ADP-Glo Max assay); type: biochemical
T1 construct: purchased Proteros biostructures GmbH
T1 sequence (P17812 1-591): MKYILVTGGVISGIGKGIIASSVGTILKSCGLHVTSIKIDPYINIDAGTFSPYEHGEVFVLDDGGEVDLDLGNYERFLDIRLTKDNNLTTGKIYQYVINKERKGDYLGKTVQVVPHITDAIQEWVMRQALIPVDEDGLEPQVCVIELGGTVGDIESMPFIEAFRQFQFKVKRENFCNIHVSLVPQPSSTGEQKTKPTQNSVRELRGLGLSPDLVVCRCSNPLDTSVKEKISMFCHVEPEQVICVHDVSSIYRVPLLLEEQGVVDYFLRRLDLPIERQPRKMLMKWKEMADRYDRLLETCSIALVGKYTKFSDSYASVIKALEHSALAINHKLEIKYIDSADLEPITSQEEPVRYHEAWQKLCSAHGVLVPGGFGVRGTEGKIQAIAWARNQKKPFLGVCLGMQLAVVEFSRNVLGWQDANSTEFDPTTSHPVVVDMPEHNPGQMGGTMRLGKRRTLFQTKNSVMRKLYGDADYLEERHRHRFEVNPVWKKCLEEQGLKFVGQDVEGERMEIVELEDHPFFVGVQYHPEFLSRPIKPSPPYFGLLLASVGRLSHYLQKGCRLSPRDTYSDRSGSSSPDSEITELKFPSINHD
Protocol: The enzyme inhibitory activities of compounds invented against the target of interest were determined using the ADP-Glo™ Max assay (Promega, UK). Assays for human CTPS1 were performed in 1× assay buffer containing 50 mM Tris, 10 mM MgCl2, 0.01% Tween-20, pH to 8.0 accordingly. Finally, immediately before use, L-cysteine was added to the 1× assay buffer to a final concentration of 2 mM. All reagents are from Sigma-Aldrich unless specified otherwise. Human full length active C-terminal FLAG-Hiss-tag CTPS1 (UniProtKB—P17812, CTPS[1-591]-[…]) was obtained from Proteros biostructures GmbH.
3× human CTPS1 protein was prepared in 1× assay buffer to the final working protein concentration required for the reaction. A 2 uL volume per well of 3× human CTPS1 protein was mixed with 2 uL per well of 3× test compound (compound prepared in 1× assay buffer to an appropriate final 3× compound concentration respective to the concentration response curve designed for the compounds under test) for 10 minutes at 25° C. The enzymatic reaction was then initiated by addition of a 2 uL per well volume of a pre-mixed substrate mix (UltraPure ATP from ADP-Glo™ Max kit (0.31 mM), GTP (0.034 mM), UTP (0.48 mM) and L-glutamine (0.186 mM)) and the mixture was incubated for an appropriate amount of time within the determined linear phase of the reaction at 25° C. under sealed plate conditions with constant agitation at 500 revolutions per minute (rpm). ADP-Glo™ Max reagent was added for 60 minutes (6 μL per well) and subsequently ADP-Glo™ Max development reagent was added for 60 minutes (12 uL per well) prior to signal detection in a microplate reader (EnVision® Multilabel Reader, Perkin Elmer). Following each reagent addition over the course of the assay, assay plates were pulse centrifuged for 30 seconds at 500 rpm.
In all cases, the enzyme converts ATP to ADP and the ADP-Glo™ Max reagent subsequently depletes any remaining endogenous ATP in the reaction system. The ADP-Glo™ Max detection reagent converts the ADP that has been enzymatically produced back into ATP and using ATP as a substrate together with luciferin for the enzyme luciferase, light is generated which produces a detectable luminescence. […] The percentage inhibition produced by each concentration of compound was calculated using the equation shown below: […]
as §1

[1] = Table 25, compounds wherein R1 is C1-5fluoroalkyl, read-out: CTPS1 (Human CTPS1 Enzyme Inhibition data grouped by potency range)

IC50 (human CTPS1; Table 23, read-out: CTPS1 (Human CTPS1 Enzyme Inhibition data grouped by potency range)): ≤ 100 nM
SMILES: CC(C)Oc1cncc(-c2ccc(NC(=O)C(C)(C)c3ccnc(NS(=O)(=O)C4CC4)n3)nc2)n1 [Example P9]
Selectivity (fold selectivity between CTPS1 and CTPS2) (human CTPS1 versus CTPS2; Table 26): +++ (>60 fold (+++))

IC50 (human CTPS1; Table 24, read-out: CTPS1 (Human CTPS1 Enzyme Inhibition data grouped by potency range)): 100 to 1000 nM
SMILES: CCOc1cncc(-c2ccc(NC(=O)C3(c4ccnc(NS(=O)(=O)N(C)C)n4)CCOCC3)nc2)n1 [Example P248]
Selectivity (fold selectivity between CTPS1 and CTPS2) (human CTPS1 versus CTPS2; Table 27): +++ (>60 fold (+++))

IC50 (human CTPS1; [1]): ≤ 100 nM
SMILES: CCOc1cncc(-c2ccc(NC(=O)C3(c4ccnc(NS(=O)(=O)CC(F)F)n4)CCOCC3)nc2)n1 [Example P271, 4-(2-((2,2-difluoroethyl)sulfonamido)pyrimidin-4-yl)-N-(5-(6-ethoxypyrazin-2-yl)pyridin-2-yl)tetrahydro-2H-pyran-4-carboxamide]

IC50 (human CTPS1; [1]): ≤ 100 nM
SMILES: CCOc1cncc(-c2ccc(NC(=O)C(F)(CC)c3ccnc(NS(=O)(=O)CC(F)F)n3)nc2)n1 (stereo not drawn) [Example P284, 2-(2-((2,2-difluoroethyl)sulfonamido)pyrimidin-4-yl)-N-(5-(6-ethoxypyrazin-2-yl)pyridin-2-yl)-2-fluorobutanamide]

— patent US20230020663A1, “SULFONAMIDE INHIBITORS AS CTPS1 INHIBITORS” (Step Pharma S.A.S., priority 2019, published 2023)
